# Results: patent US20200131180A1, “POSITIVE ALLOSTERIC MODULATORS OF THE MUSCARINIC ACETYLCHOLINE RECEPTOR M1” (Vanderbilt University, priority 2018, published 2020)
# Molecular target: T1, human mAChR M1 (Homo sapiens, UniProt P11229)
# T1 sequence (P11229 1-460): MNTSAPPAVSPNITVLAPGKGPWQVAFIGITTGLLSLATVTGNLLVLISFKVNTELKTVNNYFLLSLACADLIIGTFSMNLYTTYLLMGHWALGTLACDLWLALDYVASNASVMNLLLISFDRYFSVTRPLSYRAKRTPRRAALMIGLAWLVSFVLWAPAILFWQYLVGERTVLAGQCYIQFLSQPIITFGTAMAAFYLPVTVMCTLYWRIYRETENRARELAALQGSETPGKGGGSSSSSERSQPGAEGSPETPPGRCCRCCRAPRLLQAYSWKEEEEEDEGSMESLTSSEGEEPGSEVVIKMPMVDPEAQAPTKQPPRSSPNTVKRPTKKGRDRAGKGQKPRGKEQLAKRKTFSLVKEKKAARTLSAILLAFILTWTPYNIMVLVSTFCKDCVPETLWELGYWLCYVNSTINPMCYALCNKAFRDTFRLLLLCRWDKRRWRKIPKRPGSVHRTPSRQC
# Experiment: mAChR M1 cell-based functional assay (calcium mobilization, PAM activity)
# Conditions: CHO-K1 cells expressing hM1, calcium flux (Fluo-4); for EC50: concentration-dependent increase in the EC20 acetylcholine response; for Emax: potentiation of EC20 acetylcholine response
# How it was run: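 CHO-K1 cells stably expressing hM1, Fluo-4 AM-loaded; compounds (11-point 1:3 CRC) added, then acetylcholine at EC20 (144 s) and EC80 (230 s). Calcium flux read by FDSS fluorescence ratio; PAM activity is the concentration-dependent increase in the EC20 ACh response, Emax relative to ACh maximum; four-parameter logistic fit.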
Compound,EC50 [nM],Emax [%]
"Cc1c(Cc2ccc(-c3ccn(C)n3)cc2)cc(C(=O)N[C@H]2CCCC[C@@H]2O)c2nccn12 [compound 51, N-[(1S,2S)-2-hydroxycyclohexyl]-5-methyl-6-[[4-(1-methylpyrazol-3-yl)phenyl]methyl]imidazo[1,2-a]pyridine-8-carboxamide]",138,59
"Cn1ccc(-c2ccc(Cc3cc(C(=O)N[C@H]4CCCC[C@@H]4O)c4nccn4c3)c(F)c2)n1 [compound 52, 6-[[2-fluoro-4-(1-methylpyrazol-3-yl)phenyl]methyl]-N-[(1S,2S)-2-hydroxycyclohexyl]imidazo[1,2-a]pyridine-8-carboxamide]",414,70
"Cn1ccc(-c2ccc(Cc3cc(C(=O)N[C@H]4CCOC[C@@H]4O)c4nccn4c3)c(F)c2)n1 [compound 53, 6-[[2-fluoro-4-(1-methylpyrazol-3-yl)phenyl]methyl]-N-[(3R,4S)-3-hydroxytetrahydropyran-4-yl]imidazo[1,2-a]pyridine-8-carboxamide]",249,66
"Cn1cc(-c2ccc(Cc3cc(C(=O)N[C@H]4CCCC[C@@H]4O)c4nccn4c3)c(F)c2)cn1 [compound 54, 6-[[2-fluoro-4-(1-methylpyrazol-4-yl)phenyl]methyl]-N-[(1S,2S)-2-hydroxycyclohexyl]imidazo[1,2-a]pyridine-8-carboxamide]",217,70
"Cn1cc(-c2ccc(Cc3cc(C(=O)N[C@H]4CCOC[C@@H]4O)c4nccn4c3)c(F)c2)cn1 [compound 55, 6-[[2-fluoro-4-(1-methylpyrazol-4-yl)phenyl]methyl]-N-[(3R,4S)-3-hydroxytetrahydropyran-4-yl]imidazo[1,2-a]pyridine-8-carboxamide]",123,65
"Cc1c(Cc2ccc(-c3cnn(C)c3)cc2F)cc(C(=O)N[C@H]2CCOC[C@@H]2O)c2nccn12 [compound 56, 6-[[2-fluoro-4-(1-methylpyrazol-4-yl)phenyl]methyl]-N-[(3R,4S)-3-hydroxytetrahydropyran-4-yl]-5-methyl-imidazo[1,2-a]pyridine-8-carboxamide]",32.2,72
"Cc1c(Cc2ccc(-c3cnn(C)c3)cc2F)cc(C(=O)N[C@H]2CCCC[C@@H]2O)c2nccn12 [compound 57, 6-[[2-fluoro-4-(1-methylpyrazol-4-yl)phenyl]methyl]-N-[(1S,2S)-2-hydroxycyclohexyl]-5-methyl-imidazo[1,2-a]pyridine-8-carboxamide]",97.8,68
"Cn1cc(-c2ccc(Cc3cc(C(=O)N[C@H]4CCC[C@@H]4O)c4nccn4c3)c(F)c2)cn1 [compound 58, 6-[[2-fluoro-4-(1-methylpyrazol-4-yl)phenyl]methyl]-N-[(1S,2S)-2-hydroxycyclopentyl]imidazo[1,2-a]pyridine-8-carboxamide]",991,84
"Cn1ccc(-c2ccc(Cc3cc(C(=O)N[C@H]4CCC[C@@H]4O)c4nccn4c3)c(F)c2)n1 [compound 59, 6-[[2-fluoro-4-(1-methylpyrazol-3-yl)phenyl]methyl]-N-[(1S,2S)-2-hydroxycyclopentyl]imidazo[1,2-a]pyridine-8-carboxamide]",1200,79
"O=C(N[C@H]1CCCC[C@@H]1O)c1cc(Cc2ccc(-n3cccn3)nc2)cn2ccnc12 [compound 60, N-[(1S,2S)-2-hydroxycyclohexyl]-6-[(6-pyrazol-1-yl-3-pyridyl)methyl]imidazo[1,2-a]pyridine-8-carboxamide]",1010,47
"O=C(N[C@H]1CCCCC[C@@H]1O)c1cc(Cc2ccc(-n3cccn3)nc2)cn2ccnc12 [compound 61, N-[(1S,2S)-2-hydroxycycloheptyl]-6-[(6-pyrazol-1-yl-3-pyridyl)methyl]imidazo[1,2-a]pyridine-8-carboxamide]",2540,52
"Cn1cc(-c2ccc(Cc3cc(C(=O)N[C@H]4CCCC[C@@H]4O)c4nccn4c3)cc2)cn1 [compound 62, N-[(1S,2S)-2-hydroxycyclohexyl]-6-[[4-(1-methylpyrazol-4-yl)phenyl]methyl]imidazo[1,2-a]pyridine-8-carboxamide]",699,89
"O=C(N[C@H]1CCOC[C@@H]1O)c1cc(Cc2ccc(-n3cccn3)nc2)cn2ccnc12 [compound 63, N-[(3R,4S)-3-hydroxytetrahydropyran-4-yl]-6-[(6-pyrazol-1-yl-3-pyridyl)methyl]imidazo[1,2-a]pyridine-8-carboxamide]",4820,67
"O=C(N[C@H]1CCCC[C@@H]1O)c1cc(Cc2ccc(C(F)(F)F)nc2)cn2ccnc12 [compound 64, N-[(1S,2S)-2-hydroxycyclohexyl]-6-[[6-(trifluoromethyl)-3-pyridyl]methyl]imidazo[1,2-a]pyridine-8-carboxamide]",,46
"Cn1cc(-c2ccc(Cc3cc(C(=O)N[C@H]4CCOC[C@@H]4O)c4nccn4c3)cc2)cn1 [compound 65, N-[(3R,4S)-3-hydroxytetrahydropyran-4-yl]-6-[[4-(1-methylpyrazol-4-yl)phenyl]methyl]imidazo[1,2-a]pyridine-8-carboxamide]",1360,90
"O=C(N[C@H]1CCOC[C@@H]1O)c1cc(Cc2ccc(C(F)(F)F)nc2)cn2ccnc12 [compound 66, N-[(3R,4S)-3-hydroxytetrahydropyran-4-yl]-6-[[6-(trifluoromethyl)-3-pyridyl]methyl]imidazo[1,2-a]pyridine-8-carboxamide]",,36
"O=C(NC1CCOCC1)c1cc(Cc2ccc(-n3cccn3)cc2)cc2ncnn12 [compound 67, 7-(4-(1H-pyrazol-1-yl)benzyl)-N-(tetrahydro-2H-pyran-4-yl)-[1,2,4]triazolo[1,5-a]pyridine-5-carboxamide]",,46
